{"source": "paper PMC8910629", "about": "“Design, Synthesis, and Anticancer Activity of a Selenium-Containing Galectin-3 and Galectin-9N Inhibitor” (International Journal of Molecular Sciences, 2022)", "molecules": {"B1": {"name": "Gal-3^CRD: recombinant carbohydrate recognition domain of galectin 3 (residues 112–250), used as cell motility stimulator (protein, UniProt P17931 112-250, looked up, fragment)", "chain": "GPLIVPYNLPLPGGVVPRMLITILGTVKPNANRIALDFQRGNDVAFHFNPRFNENNRRVIVCNTKLDNNWGREERQSVFPFESGKPFKIQVLVEPDHFKVAVNDAHLLQYNHRVKKLNEISKLGISGDIDLTSASYTMI", "modifications": "carbohydrate recognition domain", "notes": "recombinant carbohydrate recognition domain of galectin 3 (residues 112–250), used as cell motility stimulator"}}, "key": {"galectins": {"system": "galectins", "settings": "cited from earlier work"}, "Gal-9N^CRD": {"molecular_target": "T1, Gal-9N^CRD (Homo sapiens, UniProt O00182)", "T1 construct": "Gal-9N^CRD (amino acid residues 1–148) were cloned into the vector pETM11; polyHis-tag (TEV-cleavable, from pETM11) (N); made in house; host or cells: Escherichia coli BL21(DE3)GOLD", "T1 sequence (O00182 1-148)": "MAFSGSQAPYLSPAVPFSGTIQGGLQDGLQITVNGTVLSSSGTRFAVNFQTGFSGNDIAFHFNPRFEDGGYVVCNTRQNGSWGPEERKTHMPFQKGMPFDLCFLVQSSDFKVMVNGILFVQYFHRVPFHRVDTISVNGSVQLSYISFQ", "test": "Isothermal titration calorimetry with Gal-9N CRD", "format": "binding", "settings": "ITC", "experimental": "(§1) The two proteins were cloned into pETM11 expression vector with a N-terminal polyHis-tag that is removable by TEV protease. The recombinant vectors pETM11-gal3^CRD and pETM11-gal9^CRD were used to transform E. coli BL21(DE3)GOLD cells and a single colony was grown overnight at 37 °C in 20 mL of LB medium. In total, 10 mL of the saturated cultures were transferred in 1 L of LB medium and grown at 37 °C to 0.8 OD 600 nm before induction with IPTG (0.5 mM). The inductions were kept for 16 and for 3 h at 22 °C in the expression of Gal-3^CRD and Gal-9N^CRD, respectively. The cells were harvested by centrifugation, re-suspended in 30 mL of lysis buffer (20 mM NaP, 500 mM NaCl, 10 mM imidazole pH 7.0 for Gal-3^CRD and pH 7.5 Gal-9N^CRD), and sonicated. […] Elution was carried out with 300 mM imidazole. Fractions containing the recombinant protein were, finally, applied onto a Superdex 75 10/300 column (GE Healthcare), connected to an AKTA system (GE Healthcare) pre-equilibrated in 20 mM NaP, 150 mM NaCl pH 7.0 for the purification of Gal-3^CRD and pH 7.5 for Gal-9N^CRD.\n(§2) The purified proteins were used to perform interaction studies. […] Before all titrations, molecules were dissolved in 20 mM NaP, 150 mM NaCl pH 7.0 (when the molecules were assayed against Gal-3^CRD) or pH 7.5 (for Gal-9N^CRD). The sample cell was filled with 280 μL of Gal-3^CRD or Gal-9N^CRD. Molecules were injected in a volume of 0.2 μL for the first injection and 1 μL for the next 39 injections using an injection interval of 150 s. The control experiment, obtained by injection of the same amount of each molecule in buffer solution, was subtracted to correct for heat production upon molecules dilution. All data were analyzed and fitted using the Microcal Origin version 7.0 software package. Binding enthalpy, dissociation constants, and stoichiometry were determined by fitting the data using a one-set-of-site-binding model."}, "Gal-1": {"system": "Gal-1", "set-up": "method as in PMID 27356186", "settings": "cited from earlier work"}, "Gal-3": {"system": "Gal-3", "settings": "cited from earlier work"}, "WM266 cells [1]": {"system": "WM266 cells", "test": "Transwell invasion assay", "format": "cell-based, human", "settings": "24 h, SeDG", "method": "To analyze cell invasion, the surface of a filter membrane of a transwell insert was coated with extracellular matrix (ECL) (Millipore). Cells (5 × 10^4) suspended in 100 μL of serum-free medium were incubated with various concentrations of molecules and successively they were seeded onto the upper compartment of the transwell, whereas the lower chambers were filled with medium containing 10% FCS [65]. After 24 h, the cells were fixed with 10% formalin and stained with crystal violet. The remaining cells in the upper side of the transwell were removed and cells on the undersurface of the filters, the invaded cells, were visualized and counted from six randomly selected fields (10× magnification) under a phase-contrast microscope with AxioVision Rel."}, "WM266 cells [2]": {"system": "WM266 cells", "test": "Wound healing scratch assay", "format": "cell-based, human", "experimental": "Analysis of cell migration in vitro has been carried out by using the wound healing scratch assay. WM266 cells were grown until they reached a confluent monolayer. After, they were linearly scratched with a pipette tip to generate a cell-free space. […] The area related to each incision was photographed at the time 0, 24, and 48 h using a phase contrast optical microscope with a 10× magnification (Zeiss). The distance between the edges of the incisions was measured by AxioVision Rel. 4.8 software and its mean value was determined as follows: wound closure (%) = 1 − (wound width tx/wound width t0) × 100. Bars depict mean ± SE of three independent experiments."}, "tumor cell proliferation": {"system": "tumor cell proliferation", "set-up": "method as in doi:10.1039/D1QO00045D", "settings": "even at 2 mM concentration; cited from earlier work"}, "Gal-3^CRD": {"molecular_target": "T2, Gal-3^CRD (Homo sapiens, UniProt P17931)", "T2 construct": "The genes encoding Gal-3^CRD (amino acid residues 112–250); polyHis-tag (TEV-cleavable, from pETM11) (N); made in house; host or cells: Escherichia coli BL21(DE3)GOLD", "test": "Isothermal titration calorimetry with Gal-3 CRD", "format": "binding", "settings": "ITC, 298 K", "experimental": "as §1, §2"}, "HuVec cells": {"system": "HuVec cells", "test": "Angiogenesis (capillary tube formation) assay", "format": "cell-based, human", "settings": "SeDG at 2.5 mM", "method": "Angiogenesis assay was performed by using “In Vitro Angiogenesis Assay Kit” (Merck, Burlington, MA, USA). Briefly, 100 μL of ECL were plated in a pre-cooled 96-well plate and incubated for 1 h at 37 °C. 10,000 cells (HuVec), suspended in EGM-2 [66], incubated with digalactosyl selenides, and seeded onto solidified matrix, according to manufacturer’s instructions. After 5–6 h of incubation at 37 °C, the tube formation was examined by means of a phase contrast optical microscope (Axiovert 200 Zeiss) at 10× magnification and the branch point number was calculated from 3 random fields per each treatment."}}, "note": "Values joined by “and” are separate entries in the source; they are usually repeats but may differ in a detail not shown here. Equal entries are not always repeated.", "data": [{"molecule": "OC[C@H]1O[C@@H](O[C@H]2[C@H](O)[C@@H](O)C(O)O[C@@H]2CO)[C@H](O)[C@@H](O)[C@H]1O", "note": "(mixture of isomers) [lactose]", "values": [{"measurement": "binding affinities to galectins", "setting": "galectins", "result": "high micromolar range"}, {"measurement": "binding of lactose (functional integrity of protein)", "setting": "Gal-9N^CRD; Figure S2", "result": "able to bind lactose"}]}, {"molecule": "CC(=O)N[C@H]1C(O)O[C@H](CO)[C@@H](O[C@@H]2O[C@H](CO)[C@H](O)[C@H](O)[C@H]2O)[C@@H]1O", "note": "(some centres unmarked) [LacNAc, N-acetyllactosamine]", "values": [{"measurement": "binding affinities to galectins", "setting": "galectins", "result": "high micromolar range"}]}, {"molecule": "OC[C@H]1O[C@@H](S[C@@H]2O[C@H](CO)[C@H](O)[C@H](n3cc(-c4cccc(F)c4)nn3)[C@H]2O)[C@H](O)[C@@H](n2cc(-c3cccc(F)c3)nn2)[C@H]1O", "note": "[TD139]", "values": [{"measurement": "binding affinity", "setting": "Gal-1", "result": "nanomolar affinity"}, {"measurement": "binding affinity", "setting": "Gal-3", "result": "nanomolar affinity"}]}, {"molecule": "OC[C@H]1O[C@@H](S[C@@H]2O[C@H](CO)[C@H](O)[C@H](O)[C@H]2O)[C@H](O)[C@@H](O)[C@H]1O", "note": "[TDG, β-D-galactopyranosyl-(1-1)-thio-β-D-galactopyranoside]", "values": [{"measurement": "affinity to galectins", "setting": "galectins", "result": "same affinity to galectins as lactose"}]}, {"molecule": "digalactosyl selenide [SeDG]", "values": [{"measurement": "WM266 invasion through extracellular matrix", "setting": "WM266 cells [1]", "result": "able to reduce the cells invasion but only at millimolar concentrations"}, {"measurement": "wound closure", "setting": "WM266 cells [2]; WM266, SeDG at 1 and 2.5 mM, 24 and 48 h, vs untreated", "result": "decreased the wound closure at all used concentrations and time intervals"}, {"measurement": "effect on tumor cell proliferation", "setting": "tumor cell proliferation", "result": "unable to affect tumor cell proliferation"}, {"measurement": "n (stoichiometry)", "setting": "Gal-3^CRD", "result": "1.09 ± 0.05"}, {"measurement": "ΔG", "setting": "Gal-3^CRD", "result": -26.4, "unit": "kJ/mol"}, {"measurement": "ΔH", "setting": "Gal-3^CRD", "result": "-18.1 ± 1.13", "unit": "kJ/mol"}, {"measurement": "−TΔS", "setting": "Gal-3^CRD", "result": -8.33, "unit": "kJ/mol"}, {"measurement": "Kd", "setting": "Gal-3^CRD; pH 7.0", "result": "20.2 ± 2.2", "unit": "µM"}, {"measurement": "change of capillary tube formation", "setting": "HuVec cells", "result": "non-statistically significant change"}, {"measurement": "n (stoichiometry)", "setting": "Gal-9N^CRD; 298 K", "result": "1.01 ± 0.05"}, {"measurement": "ΔH", "setting": "Gal-9N^CRD; 298 K", "result": "-23.6 ± 1.51", "unit": "kJ/mol"}, {"measurement": "−TΔS", "setting": "Gal-9N^CRD; 298 K", "result": -6.11, "unit": "kJ/mol"}, {"measurement": "Kd", "setting": "Gal-9N^CRD; 298 K, pH 7.5", "result": "~20 µM and 22.4 µM"}]}, {"molecule": "B1", "values": [{"measurement": "cell migration (wound closure) vs control", "setting": "WM266 cells [2]; WM266, 50 µM Gal-3^CRD", "result": "migrate more than in the control"}]}]}
